Assay results: patent US8980842B2, “Contraceptive peptides derived from the venom of the spider Latrodectus mirabilis, nucleotide sequences to transform a microorganism to produce said peptides; methods to obtain the peptides; pharmaceutical compositions containing thereof and use thereof” (Universidad de la Frontera, priority 2010, dated 2015)

Key:
human spermatozoa [1] = test: Sperm motility (immobilizing effect) assay in selected human spermatozoa (swim up); type: cell-based
Protocol: The spermicidal effect of the wild-type peptide and the constructed analog was assayed by assessing the sperm motility in human spermatozoa. For this, 15 mL of HTF-0.1% BSA medium (0.02 g BSA in 20 mL HTF) and 3 mL of HTF-1% BSA medium (0.04 g BSA in 4 mL HTF) were placed in an assay tube and incubated at 37° C. Subsequently, a sample of 2.6 mL of human semen was incubated during 25 minutes until liquefaction. Once liquefied, the sample was divided into 3 15-mL conical tubes with 2 mL of warm HTF-0.1% BSA in each tube. 860 μL of liquefied semen were vertically added to the bottom of each tube, gently pipetting to homogenize the mixture avoiding the formation of bubbles. Large clots were removed. Subsequently, the sample was centrifuged for 8 minutes at 1,800 rpm and the supernatant was discarded by touching only the surface of the medium with the pipette tip just on the tube walls and pipetting out the liquid. […] Then, spermatozoa were counted, reaching values around 10 million of selected spermatozoa per mL (10×10^6/mL). Different concentrations of the total venom and the different venom fractions obtained in the chromatographic purification, as well as the constructed analog peptide, were applied to samples of the spermatozoid previously selected and counted and were incubated in HTF medium for 45 minutes at 37° C. […]

human spermatozoa [2] = test: Hamster oocyte penetration assay (Yanagimachi et al. 1976), fertilizing capacity of human spermatozoa; type: cell-based; settings: agent at its IC50 from the sperm motility curve; n=15 oocytes per group; versus control
Protocol: The decrease of the fertilizing capacity of human spermatozoa was assayed using penetration assays in hamster oocytes according to the protocol initially described by Yanagimachi et al. (1976). Briefly, golden hamster oocytes were collected; their […] was removed, and oocytes were subsequently incubated with previously capacitated human spermatozoa at a concentration of 10^7 spermatozoa/ml. The incubation was prolonged for 3-6 hours. […] The oocytes were observed using phase contrast microscopy and were only considered to have been penetrated by spermatozoa when they contained a head in decondensation stage or a male pronucleus inside their cytoplasm.

## 20-amino acid linear analog of the venom peptide, cysteine 43 replaced by alanine; SLAKTNCFTTEYFQHCVKDL [Ac-[Ala^43]-ATX41-60-NH2]
Human spermatozoa [1]; maximal doses (FIG. 2)
  spermatozoids affected at maximal doses: 100%
Human spermatozoa [1]; selected human spermatozoa (swim up), incubated 45 minutes in HTF medium, 37° C.
  IC50 of the immobilizing effect (spermatozoa with no progressive linear movement): 39.81 µg/mL
Human spermatozoa [2]
  decrease in the fertilizing capacity of spermatozoa: 82±0.3%
